From ChEMBL document CHEMBL1127944, “Synthesis of the potent and selective atypical -adrenergic agonist SR 59062A” (Bioorg Med Chem Lett, 1994) come the findings set out here.

Some results are limits rather than exact numbers.

In experiment [1] the target is Adrenergic receptor beta (Homo sapiens, UniProt P08588+P07550+P13945). In words: Beta-adrenergic agonistic activity in guinea-pig atrium preincubated with phenoxybenzamine (12 uM) for 30 min. It counts as functional, tissue-based, Cavia porcellus, Cardiac atrium. The settings on record: target entry is the homologue from another species.
For experiment [2], the target named is T1, Adrenergic receptor beta (Rattus norvegicus, UniProt P18090+P10608+P26255). In words: Beta-adrenergic agonistic activity in rat proximal colon. The class given is functional.
In experiment [3] the target is T1, Adrenergic receptor beta. Briefly: Beta-adrenergic agonistic activity in rat uterus preincubated with phenoxybenzamine (12 uM) for 30 min. The class given is functional, tissue-based.
Experiment [4] deals with T1, Adrenergic receptor beta. Briefly: Beta-adrenergic agonistic activity in rat proximal colon in presence of phentolamine (10 uM), desmethylimipramine (0.5 uM) and hydrocortisone (30 uM). The class given is functional, tissue-based.

What is called EC50 is the midpoint of the concentration-response curve. The IC50 is the concentration that inhibits the measured activity by half. Turning to `CCOC(=O)c1ccc2c(c1)CC(NCC(O)c1cccc(Cl)c1)CC2.Cl` (stereo not drawn), on Adrenergic receptor beta [1], the EC50 was above 30 µM. Besides, the IC50 came out at 0.09 µM at Adrenergic receptor beta [2] and 0.185 µM on Adrenergic receptor beta [3].

Turning to `CCOC(=O)CCc1ccc2c(c1)C[C@H](NC[C@H](O)c1cccc(Cl)c1)CC2.Cl`, the values for the IC50 on Adrenergic receptor beta [4] and at Adrenergic receptor beta [3] were 0.0009 µM and 0.48 µM, respectively. For the same compound, on Adrenergic receptor beta [1], the EC50 was above 30 µM.

As for `CCOC(=O)CCc1ccc2c(c1)CC(NCC(O)c1cccc(Cl)c1)CC2.Cl` (stereo not drawn), the EC50 on Adrenergic receptor beta [1] is above 30 µM. In addition, the IC50 was determined as 0.021 µM at Adrenergic receptor beta [2] and 0.35 µM on Adrenergic receptor beta [3].

In the case of `CCOC(=O)CCc1ccc2c(c1)C[C@@H](NC[C@H](O)c1cccc(Cl)c1)CC2.Cl`, the IC50 on Adrenergic receptor beta [4] is 0.00109 µM; on Adrenergic receptor beta [3], 0.319 µM. Further, the EC50 on Adrenergic receptor beta [1] is above 30 µM.

`CCOC(=O)COc1ccc2c(c1)C[C@@H](NC[C@H](O)c1cccc(Cl)c1)CC2.Cl` (mixture of isomers) [AMIBEGRON HYDROCHLORIDE] displayed an EC50 on Adrenergic receptor beta [1] above 30 µM. Further, the figures for the IC50 at Adrenergic receptor beta [2] and at Adrenergic receptor beta [3] were 0.047 µM and 1.2 µM, respectively.

In the case of `CCOC(=O)COc1ccc2c(c1)C[C@@H](NC[C@H](O)c1cccc(Cl)c1)CC2.Cl` [AMIBEGRON HYDROCHLORIDE], the IC50 came out at 0.0035 µM at Adrenergic receptor beta [4] and 0.499 µM at Adrenergic receptor beta [3]. Also, the EC50 on Adrenergic receptor beta [1] is above 30 µM.
